According to patent publication US8557872B2, “Compounds, isomer thereof, or pharmaceutically acceptable salts thereof as vanilloid receptor antagonist; and pharmaceutical compositions containing the same” (Amorepacific Corporation, priority 2008, dated 2013):
Read-outs that look alike come from different tables or passages of the source.

Experiments:
vanilloid receptor = biological target: T1, vanilloid receptor (Rattus norvegicus, UniProt O35433); experiment: 45Ca influx test (calcium uptake) in primary cultured DRG neurons, capsaicin 0.5 μM; assay type: cell-based
T1 construct: DRG nerve cells from the primary culture of 2 days were equilibrated by washing 4 times; endogenous in cells; host or cells: primary culture of dorsal root ganglion neurons from neonatal SD rats
Experimental: 1) Separation of Spinal Dorsal Root Ganglia (DRG) in Newborn Rats and Primary Culture Thereof
Neonatal (2-3 day old or younger than 2-3 day old) SD rats were put in ice for 5 minutes to anesthetize and disinfected with 70% ethanol. […] The DRG were incubated sequentially at 37° C. for 30 mins in 200 U/ml collagenase and 2.5 mg/ml trypsin, separately. The ganglia were washed twice with DME/F12 medium supplemented with 10% horse serum, triturated through a fire-polished Pasteur pipette, filtered through Nitex 80 membrane to obtain single cell suspension and the suspension was washed once more. This was subjected to centrifugation, then resuspended in cell culture medium at certain level of cell density. As the cell culture medium, DME/F12 medium supplemented with 10% horse serum was diluted with identical medium conditioned by C6 glioma cells 2 days on a confluent monolayer (1:1), and NGF (Nerve Growth Factor) was added to adjust 200 ng/ml as final concentration. After the cells were grown 2 days in medium where cytosine arabinoside (Ara-C, 100 μM) was added to kill dividing nonneuronal cells, medium was changed to one without Ara-C. The resuspended cells were plated at a density of 1500-2000 neurons/well onto Terasaki plates previously coated with 10 μg/ml poly-D-ornithine.
2) ^45Ca Influx Experiments
DRG nerve cells from the primary culture of 2 days were equilibrated by washing 4 times with HEPES (10 mM, pH 7.4)-buffered Ca^2+, Mg^2+-free HBSS (H-HBSS). The solution in each well was removed from the individual well. Medium containing the test compound plus capsaicin (final concentration 0.5 μM) and ^45Ca (final concentration 10 μCi/ml) in H-HBSS was added to each well and incubated at room temperature for 10 mins. Terasaki plates were washed five times with H-HBSS and dried at room temperature. To each well, 0.3% SDS (10 μl) was added to elute ^45Ca. After the addition of scintillation cocktail of into each well, the amount of ^45Ca influx into neuron was measured by counting radioactivity.

[1] = PK study in rats, single oral administration; assay type: in vivo, rat; set-up: AUC: concentration or dose not given beside the values; settings: for AUC / Tmax / Cmax / half-life: rat, single oral administration, plasma
Experimental: Pharmacokinetics of compounds in rats were analyzed using the following experiment. Rats were fasted overnight prior to administration and until approximately 4 hours after administration. Rats were given a single oral administration of compound at same dose. Administration volume was 10 ml/kg. Blood samples were collected from the retro-orbital sinus at various times over the following 7 hrs. Immediately after each collection, plasmas were separated from blood cells by centrifugation and stored at −20° C. until the analysis was performed. The plasma samples were analyzed using a reverse phase high-performance chromatography (HPLC) method.

[2] = comparison with comparative compounds F and G, read-out: IC50 value
[3] = Table 4, detection limit 0.100 mcg/ml
[4] = rat DRG neurons, capsaicin 0.5 μM, 45Ca, read-out: Antagonist Calcium Uptake Test (IC50)
[5] = Table 2, read-out: T½ (converted)

T1 sequence (O35433 whole entry): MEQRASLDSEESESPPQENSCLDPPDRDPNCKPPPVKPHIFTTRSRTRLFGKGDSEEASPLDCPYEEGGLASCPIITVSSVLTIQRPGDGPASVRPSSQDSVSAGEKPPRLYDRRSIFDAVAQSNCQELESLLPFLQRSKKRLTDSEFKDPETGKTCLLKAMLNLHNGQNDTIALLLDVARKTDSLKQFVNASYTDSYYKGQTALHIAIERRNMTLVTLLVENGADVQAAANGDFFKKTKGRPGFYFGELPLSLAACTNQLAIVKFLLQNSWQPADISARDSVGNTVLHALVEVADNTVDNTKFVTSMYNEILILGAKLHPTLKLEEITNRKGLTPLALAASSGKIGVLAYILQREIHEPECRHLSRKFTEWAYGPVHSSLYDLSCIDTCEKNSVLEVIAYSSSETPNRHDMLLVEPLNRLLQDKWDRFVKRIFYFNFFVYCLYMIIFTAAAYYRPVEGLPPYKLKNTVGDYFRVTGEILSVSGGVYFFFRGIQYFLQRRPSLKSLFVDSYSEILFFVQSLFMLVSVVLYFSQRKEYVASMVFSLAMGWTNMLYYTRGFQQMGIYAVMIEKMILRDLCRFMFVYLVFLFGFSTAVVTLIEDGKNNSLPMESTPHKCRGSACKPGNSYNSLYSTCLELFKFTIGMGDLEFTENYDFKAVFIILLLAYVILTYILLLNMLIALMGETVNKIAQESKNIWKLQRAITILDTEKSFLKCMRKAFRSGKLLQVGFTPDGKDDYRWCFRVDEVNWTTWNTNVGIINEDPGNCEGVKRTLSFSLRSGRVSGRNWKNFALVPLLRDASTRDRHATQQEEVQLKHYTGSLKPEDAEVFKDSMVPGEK

Row | Compound | IC50 (vanilloid receptor; [2]) [nM] | IC50 (vanilloid receptor; [4]) [nM] | AUC ([1]; Table 2) [ng·h/mL] | Cmax ([1]; Table 2) [ng/mL] | Tmax ([1]; Table 2) [h] | half-life [1, 5] [h] | further results
1 | C=Cc1cc(CNC(=O)/C=C/c2ccc(C(F)(F)F)cc2)ccc1NS(C)(=O)=O [Comp Cpd F, reference compound] | 570 |  |  |  |  |  | AUC ([1]; Table 4): 40100 ng·h/mL; Tmax ([1]; Table 4): 2 h; Cmax [1, 3]: 5000 ng/mL; half-life ([1]; Table 4, read-out: T1/2 (converted)): 4.59 h
2 | CCCc1cc(C(F)(F)F)ccc1/C=C/C(=O)N[C@H](C)c1cc(F)c(NS(C)(=O)=O)c(F)c1 [Example 21, N-[1-(3,5-Difluoro-4-methanesulfonylamino-phenyl)-ethyl]-3-(2-propyl-4-trifluoromethyl-phenyl)-acrylamide] |  | 19 | 16400 | 2720 | 2 | 3.5 | 
3 | C[C@@H](NC(=O)/C=C/c1ccc(C(F)(F)F)cc1)c1cc(F)c(NS(C)(=O)=O)c(F)c1 [Comp Cpd G, reference compound] | > 10000 |  |  |  |  |  | IC50 (vanilloid receptor; Table 4, comparative compounds having CF3-phenyl, read-out: IC50): > 10000 nM; PK properties (in terms of T max and AUC) ([1]; oral, in words): poor PK-properties; Cmax [1, 3]: < 100 ng/mL
4 | CCCNc1cc(C(F)(F)F)ccc1/C=C/C(=O)N[C@H](C)c1cc(F)c(NS(C)(=O)=O)c(F)c1 [Example 1, (R)—N-[1-(3,5-Difluoro-4-methanesulfonylamino-phenyl)-ethyl]-3-(2-propylamino-4-trifluoromethyl-phenyl)-acrylamide] |  | 19 | 1940 | 466 | 3.5 | 1.4 | 
5 | C=Cc1cc(CNC(=O)/C=C/c2ccc(C(F)(F)F)cc2NC(C)C)cc(F)c1NS(C)(=O)=O [Example 54, N-(3-fluoro-4-methanesulfonylamino-5-vinyl-benzyl)-3-(2-isopropylamino-4-trifluoromethyl-phenyl)-acrylamide] | 27 |  | 5320 | 772 | 2 | 4.05 | 
6 | CCCOc1cc(C(F)(F)F)ccc1/C=C/C(=O)N[C@H](C)c1cc(F)c(NS(C)(=O)=O)c(F)c1 [Example 5, (R)—N-[1-(3,5-Difluoro-4-methanesulfonylamino-phenyl)-ethyl]-3-(2-propoxy-4-trifluoromethyl-phenyl)-acrylamide] |  | 120 | 22500 | 2630 | 3.5 | 4.3 | 
7 | CCCNc1cc(C(C)(C)C)ccc1/C=C/C(=O)NCc1cc(F)c(NS(C)(=O)=O)c(F)c1 [Comp Cpd D, reference compound] |  |  |  |  |  |  | IC50 (vanilloid receptor; Table 3, comparative compounds having tert-butyl-phenyl, read-out: IC50): 85 nM; Cmax ([1]; Table 3, detection limit 0.100 mcg/ml): < 100 ng/mL
8 | CCCc1cc(C(F)(F)F)ccc1/C=C/C(=O)NCc1cc(F)c(NS(C)(=O)=O)c(F)c1 [Example 22, N-(3,5-Difluoro-4-methanesulfonylamino-benzyl)-3-(2-propyl-4-trifluoromethyl-phenyl)-acrylamide] |  | 160 | 19200 | 3660 | 2 | 2.58 | 
9 | CCCCc1cc(C(F)(F)F)ccc1/C=C/C(=O)N[C@H](C)c1cc(F)c(NS(C)(=O)=O)c(F)c1 [Example 24, (R)-3-(2-Butyl-4-trifluoromethyl-phenyl)-N-[1-(3,5-difluoro-4-methanesulfonylamino-phenyl)-ethyl]-acrylamide] |  | 44 | 5690 | 1190 | 2 | 2.08 | 
